# Experimental data as given in article PMC11481279 (Europace, 2024).
# Target: SARS-CoV-2 ORF 3a protein (Severe acute respiratory syndrome coronavirus 2, UniProt P0DTC3)
# Assay: cell-based
# Conditions: read-out: % inhibition at 100 μM
row,SMILES,inhibition at 100 µM
1,CC(C)NC[C@@H](O)c1ccc(NS(C)(=O)=O)cc1 [D-Sotalol],20.6 ± 4.5%
2,CN(CCOc1ccc(NS(C)(=O)=O)cc1)CCc1ccc(NS(C)(=O)=O)cc1 [Dofetilide],65.1 ± 6.7%
3,CCCCc1oc2ccc(NS(C)(=O)=O)cc2c1C(=O)c1ccc(OCCCN(CCCC)CCCC)cc1 [Dronedarone],45.4 ± 4.7%
4,CCCCCCCN(CC)CCCC(O)c1ccc(NS(C)(=O)=O)cc1 (stereo not shown) [Ibutilide],36.4 ± 6.6%
